Experimental data as given in patent publication US20110224221A1, “HEMATOPOIETIC PROTECTION AGAINST IONIZING RADIATION USING SELECTIVE CYCLIN-DEPENDENT KINASE 4/6 INHIBITORS” (priority 2008, published 2011).
“Also recorded” adds a separate entry of the source.

How the values were obtained:
[1] = test system: hematopoietic stem and progenitor cells; test: HSPC proliferation in vivo (BrdU incorporation, Ki67) by flow cytometry; parameters: species or system mice
Method: BrdU Incorporation in vivo: Mice were treated once daily for 2 days with PD 0332991 at 150 mg/kg. 5-Bromo-2-deoxyuridine (BrdU) was given 24 hours after the initiation of PD 0332991 and continued until the animals were sacrificed for analysis: 24 hours of BrdU by intraperitoneal (i.p.) injection every 6 hours at a dose of 1 mg.
For HSPC proliferation experiments, mice received daily oral gavage with PD0332991 for 2 days with 1 mg BrdU intraperitoneal injection every 6 hours for 24 hours prior to sacrifice. BM-MNC harvest and immunophenotyping was performed using RBC lysis, biotin-conjugated Lin-panel incubation (Invitrogen Corporation, Carlsbad, Calif., United States of America), paramagnetic bead-conjugated straptavidin (Miltinyi Biotec, Bergisch Gladbach, Germany) incubation, and magnetic depletion using an AutoMACS (Miltinyi Biotec, Bergisch Gladbach, Germany). At least 2×10^6 Lin-depleted cells per mouse were incubated with fluorescently labeled antibodies against cell surface antigens used to identify hematopoietic progenitor subpopulations as previously described (see Passegue et al., J. Exp. Med., 202, 1599-1611 (2005); and Kiel et al., Cell, 121, 1109-1121 (2005): CD34-FITC, CD16/32-PacificBlue, IL7Ra-PE-Cy5, and cKit-APC-Alexa750 from eBiosciences, Inc. (San Diego, Calif., United States of America); Sca1-PE-Cy7, CD150-PE-Cy5, and CD48-PacificBlue from BioLegend (San Diego, Calif., United States of America); and Aqua Live/Dead viability dye (Invitrogen Corporation, Carlsbad, Calif., United States of America). Streptavidin-PE-TexasRed (Invitrogen Corporation, Carlsbad, Calif., United States of America) was used to confirm efficiency of lineage-depletion. After cell surface staining, cells were fixed, permeabilized, and stained with antibodies against Ki67-FITC, BrdU-APC, and caspase3-PE (BD Biosciences Pharmingen, San Diego, Calif., United States of America).
In all experiments, gating based on isotype controls was used as appropriate. Flow cytometry was performed using a CyAn ADP (Dako, Glostrup, Denmark) and analyzed with FlowJo software (Tree Star, Ashland, Oreg., United States of Ameria). For each bone marrow sample, a minimum of 200,000 cells were analyzed. For cell culture samples, a minimum of 20,000 cells were analyzed.
PD0332991, which is orally bioavailable, was administered to adult wild-type C57Bl/6 mice by oral gavage. […] See Passeque et al., J. Exp. Med., 202, 1599-1611 (2005); Wilson et al., Cell, 125, 1118-1129 (2008); and Kiel et al., Nature, 449, 238-U210 (2007).
2BrIC was solubilized for oral gavage using formulation #6 from the Hot Rod formulation kit (Pharmatek, Inc. San Diego, Calif., United States of America) and given by oral gavage 2 hours prior to BrdU injection. Also, an additional dose was given at the time of BrdU injection to sustain the G1 arrest in bone marrow.

[2] = test system: human melanoma cell line WM2664; test: Cell cycle analysis (BrdU incorporation in vitro), WM2664; type: cell-based; settings: WM2664, 24 hours exposure
Text: (§1) FIG. 3A is a set of graphs showing the dose-response curves for cycle analysis in both cyclin-dependent kinase 4/6 (CKD4/6)-dependent cells (human telomerized human diploid fibroblasts (tHDFs, left-hand column of graphs) and a CDK4/6-dependent human melanoma cell line (WM2664, middle column of graphs)) and in CDK4/6-independent cells (a human retinoblastoma tumor suppressor protein (RB)-null melanoma cell line (A2058), right-hand column of graphs). […] The percentage of cells in the G1 phase is indicated by the data shown in the open triangles, while the percentage of cells in the S phase is shown by the data in the shaded circles and the percentage of cells in the G2/M phase is indicated by the data in the double “x”s.
FIG. 8 is a set of representative cell cycle dot-plots for cyclin-dependent kinase 4/6 (CDK4/6)-dependent (WM2664) human melanoma cells (top two rows) and CDK4/6-independent (A2058) human melanoma cells (bottom two rows) that had been treated with dimethyl sulfoxide (DMSO) as a control or with 300 nM, 1 μM, 3 μM, 10 μM or 30 μM of trans-4-[[6-ethylamino)-2-[[2-phenylmethyl)-1H-indol-5-yl]amino]-4-pyrimidinyl]amino]]-cyclohexanol (CINK4).
(§2) Cell Lines: KPTR1, KPTR4. and KPTR5 were derived from tumor-bearing TyrRAS+Ink4a/Arf−/− by standard procedures and cultured in RPMI+10% fetal bovine serum (FBS). Telomerized HDFs (tHDFs, also known as HS68) were cultured in DMEM+10% FBS with penicillin and streptomycin. The same conditions were used for A2058 and WM2664, human melanoma cell lines with known RB-pathway mutations: A2058 is RB-null, whereas WM2664 lacks p16^INK4a/Arf. See Shields, et al., Cancer Res., 67, 1502-1512 (2007). Cells were irradiated for indicated doses in a Rad Source Inc. (Alpharetta, Ga., United States of America) RS-2000 Biological Irradiator at 160 kV, 25.0 mA, at distance setting 1, with a dose rate of 103 rads/min.
(§3) BrdU Incorporation in vitro: Cells were plated and allowed to adhere overnight or at least 6 hours prior to adding CDK4/6 inhibitor at the indicated concentrations. Cells were grown for 24 hours in the presence of CDK4/6 inhibitor. 15 minutes prior to cell harvesting, 5-Bromo-2-deoxyuridine (BrdU) was added to the media at a final concentration of 10 μM. The cells were then washed, trypsinized, pelleted, fixed, permeabilized, stained, and measured on a flow cytometer as described in manufacturer directions for the BrdU Kit (BD Biosciences Pharmingen, San Diego, Calif., United States of America).
(§4) The proliferation of seven RB-deficient human small cell lung cancer lines was also resistant to the selective CDK4/6 inhibitors.

[3] = test system: telomerized human diploid fibroblasts (tHDF); test: Cell cycle analysis (BrdU incorporation in vitro), tHDF; type: cell-based; settings: 24 hours exposure
Text: as §1, §2, §3, §4

[4] = among oligopotent progenitors, 48 hours treatment

O=C1NC(=O)c2c1c1c3ccccc3[nH]c1c1[nH]c3cc(Br)ccc3c21 [Compound 2BrIC, 2-bromo-12,13-dihydro-5H-indolo[2,3-a]pyrrolo[3,4]-carbazole-5,6-dione]
incorporation of BrdU into MPP ([1]; Lin−Kit+Sca1+ cells, oral gavage 2 hours prior to and at BrdU injection, relative to formulation alone): inhibited the incorporation of BrdU; also recorded: clearly reducing proliferation of the MPP
cell cycle effect [2]: strong, reversible G1-arrest
cell cycle effect [3]: strong, reversible G1-arrest

CC(=O)c1c(C)c2cnc(Nc3ccc(N4CCNCC4)cn3)nc2n(C2CCCC2)c1=O [PD0332991, 6-acetyl-8-cyclopentyl-5-methyl-2-(5-piperazin-1-yl-pyridin-2-ylamino)-8H-pyrido-[2,3-d]-pyrimidin-7-one]
proliferation in early HSPC (BrdU incorporation, Ki67) ([1]; 48 hours treatment): clearly reduces proliferation
proliferation of Lin−Kit−Sca1− and Lin+ cells ([1]; 48 hours treatment): no change in proliferation
frequency of HSC doubly positive for expression of Ki67 and BrdU ([1]; HSC (Lin−Kit+Sca1+CD48−CD150+), 48 hours treatment, oral gavage, C57Bl/6): significantly decreased
proliferation of oligopotent progenitors ([1]; Lin−Kit+Sca1−, 48 hours treatment): modest inhibition of proliferation
proliferation of multipotent progenitor cell compartment ([1]; MPP (Lin−Kit+Sca1+CD48−CD150−), 48 hours treatment): more pronounced inhibition of proliferation
proliferation of CMP and CLP [1, 4]: strongest effects
proliferation of GMP and MEP [1, 4]: weaker effects
cell cycle effect [2]: strong, reversible G1-arrest
cell cycle effect [3]: strong, reversible G1-arrest
